Assay results: patent publication US20240398767A1, “INHIBITORS OF THE MTDH-SND1 PROTEIN COMPLEX FOR CANCER THERAPY” (The Trustees of Princeton University, priority 2021, published 2024)

Assays:
[1] = test system: Wnt;UBC-CreERT+/-;Mtdhfl/fl tumor cells; test: Tumorsphere assay, Wnt;UBC-CreERT+/-;Mtdhfl/fl tumor cells; assay type: cell-based, mouse; settings: with or without 4-OHT pre-treatment
Protocol: (§1) For FIGS. 11B-11E, 50 k per well of cells were seeded and treated with indicated compounds the next day. 5 days after treatment, sphere number and size were assessed and normalized to vehicle control group. Data represent mean±SEM. n=3 independent experiments. Significance determined by one-way ANOVA analysis with Dunnett's test for multiple comparisons.
FIG. 11D, Wnt;UBC-Cre^ERT+/−;Mtdh^fl/fl tumor cells without 5 days of 0.02 μg/ml 4-OHT pre-treatment were subjected to the tumorsphere assay.
FIG. 11E, Wnt;UBC-Cre^ERT+/−;Mtdh^fl/fl tumor cells with 5 days of 0.02 μg/ml 4-OHT pre-treatment were subjected to the tumorsphere assay.

[2] = molecular target: T1, MTDH-SND1 interaction (split-luc) in SCP28 cells (Homo sapiens, UniProt Q7KZF4); test: Split-luciferase reporter in living SCP28 cells; assay type: cell-based; settings: for blocking efficiency over time (stability of the compounds in cells): 100 μM, 5 days after the addition; for split-luc activity in living cells: multiple doses, 30 min after treatment
T1 construct: SND1-NLuc and CLuc-MTDH flanked by BamH 1 and Not 1 restriction sites were inserted into pcDNA3.1 and pRVPTO (retrovrial) vectors; expressed in transfected cells; host or cells: SCP28 cells stably transduced with pRVPTO retroviral vectors (packaged in H29 cells)
T1 sequence (Q7KZF4 with tags, fused parts or gaps): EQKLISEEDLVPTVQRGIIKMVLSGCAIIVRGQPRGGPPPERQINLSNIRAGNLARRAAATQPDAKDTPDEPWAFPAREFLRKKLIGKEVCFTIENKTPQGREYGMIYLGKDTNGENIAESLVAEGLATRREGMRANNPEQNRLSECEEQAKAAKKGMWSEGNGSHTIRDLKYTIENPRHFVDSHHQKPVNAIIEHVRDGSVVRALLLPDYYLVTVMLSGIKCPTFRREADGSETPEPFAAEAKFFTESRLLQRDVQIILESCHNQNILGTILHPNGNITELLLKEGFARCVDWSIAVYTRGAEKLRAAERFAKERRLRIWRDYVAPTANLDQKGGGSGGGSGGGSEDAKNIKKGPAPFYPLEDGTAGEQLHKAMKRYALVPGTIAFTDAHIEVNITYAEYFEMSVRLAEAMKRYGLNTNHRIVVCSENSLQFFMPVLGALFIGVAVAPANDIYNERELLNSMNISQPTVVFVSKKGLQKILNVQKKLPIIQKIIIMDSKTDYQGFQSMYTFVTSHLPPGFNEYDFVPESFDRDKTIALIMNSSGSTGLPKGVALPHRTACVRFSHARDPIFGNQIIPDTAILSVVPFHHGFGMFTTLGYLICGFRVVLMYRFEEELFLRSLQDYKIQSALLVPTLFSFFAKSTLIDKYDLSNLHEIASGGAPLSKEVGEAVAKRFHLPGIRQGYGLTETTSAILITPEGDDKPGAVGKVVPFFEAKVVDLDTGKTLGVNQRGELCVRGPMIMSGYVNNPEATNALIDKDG
Protocol: FIG. 4A, SCP28 cells that stably express split- or linked-luciferase components were treated with multiple doses of C26-A2 or C26-A6. 30 minutes (min) after treatment, culture media was removed and the luciferase activity in the cells was measured. Data represent mean±SEM. n=3 independent experiments.
FIG. 4B, The same cells as in FIG. 4A were treated with 100 μM of the compounds for indicated days, and were harvested to measure the luciferase activity. Data represent mean±SEM. n=3 independent experiments.
C26s inhibit breast cancer progression and metastasis. C26-A2 and A6 were picked for the functional test. To this end, it was tested whether C26-A2 and A6 could inhibit breast cancer progression. […] Next, SCP28 breast cancer cells that were engineered to express split- or linked-luciferase reporter were treated with C26-A2 or A6.

[3] = test system: PyMT;UBC-CreERT+/-;Mtdhfl/fl wild type tumor cells; test: Tumorsphere assay, PyMT;UBC-CreERT+/-;Mtdhfl/fl wild type tumor cells; assay type: cell-based, mouse; settings: 5 days after treatment
Protocol: as §1, with “FIG. 4C, PyMT;UBC-Cre^ERT+/−;Mtdh^fl/fl cells without 5 days of 0.02 μg/ml 4-OHT pre-treatment was employed for tumorsphere assay.” for “For FIGS. 11B-11E,”, “seed” for “seeded”, “Sidak's” for “Dunnett's”
Next, PyMT; UBC-Cre^ERT+/−;Mtdh^fl/fl tumor cells: 1) with or without Mtdh pre-depletion; 2) with or without endogenous Snd1 knockdown; or 3) in combination were employed for tumorsphere assay followed by the compound treatments. […] The results were confirmed using C3 and Wnt;UBC-Cre^ERT+/−;Mtdh^fl/fl tumorspheres (FIG. 11B-11E). Taken together, these findings confirmed that the anti-tumor effect of C26-A2 and A6 is dependent on their specific effect on blocking MTDH-SND1 interaction.

[4] = test system: C3;UBC-CreERT+/-;Mtdhfl/fl tumor cells; test: Tumorsphere assay, C3;UBC-CreERT+/-;Mtdhfl/fl tumor cells; assay type: cell-based, mouse; settings: with or without 4-OHT pre-treatment
Protocol: as §1
FIG. 11B, C3; UBC-Cre^ERT+/−;Mtdh^fl/fl tumor cells (FIGS. 11D, 11E) without 5 days of 0.02 μg/ml 4-OHT pre-treatment were subjected to the tumorsphere assay.
FIG. 11C, C3; UBC-Cre^ERT+/−;Mtdh^fl/fl tumor cells with 5 days of 0.02 μg/ml 4-OHT pre-treatment were subjected to the tumorsphere assay.

[5] = test system: PyMT tumor cells with Mtdh KO or Snd1 KD; test: Tumorsphere assay, PyMT;UBC-CreERT+/-;Mtdhfl/fl cells with Mtdh KO or Snd1 KD; assay type: cell-based, mouse; settings: Mtdh KO (4-OHT pre-treatment) or Snd1 KD
Protocol: as §1, with “FIG. 4D, PyMT;UBC-Cre^ERT+/−;Mtdh^fl/fl cells with 5 days of 0.02 μg/ml 4-OHT pre-treatment was employed for tumorsphere assay.” for “For FIGS. 11B-11E,”, “seed” for “seeded”, “Sidak's” for “Dunnett's”
FIG. 4E, PyMT;UBC-Cre^ERT+/−;Mtdh^fl/fl cells with or without SND1 knockdown, or without 5 days of 0.02 μg/ml 4-OHT pre-treatment were subjected to the tumorsphere assay and then treated with 200 μM of C26-A6 similar to FIG. 4C. Data represent mean SEM. n=3 independent experiments. Significance determined by two tailed Student's t-test.
FIG. 4F, PyMT;UBC-Cre^ERT+/−;Mtdh^fl/fl cells with or without SND1 knockdown, or with 5 days of 0.02 μg/ml 4-OHT pre-treatment were subjected to the tumorsphere assay and then treated with 200 μM of C26-A6 similar to FIG. 4C. Data represent mean±SEM. n=3 independent experiments. Significance determined by two tailed Student's t-test.
Next, PyMT; UBC-Cre^ERT+/−;Mtdh^fl/fl tumor cells: 1) with or without Mtdh pre-depletion; 2) with or without endogenous Snd1 knockdown; or 3) in combination were employed for tumorsphere assay followed by the compound treatments. […]

COc1ccc(Cl)cc1S(=O)(=O)Nc1cccn2ncnc12 [Analog C26-A2]
tumorsphere formation (sphere number and size) [1]: confirmed
blocking efficiency over time (stability of the compounds in cells) [2]: not significantly changed
split-luc activity in living cells [2]: inhibited split-luc activity in living cells in a dose dependent manner
tumorsphere formation (sphere number and size) [3]: inhibited spheres
tumorsphere formation (sphere number and size) [4]: confirmed
tumorsphere formation (sphere number and size) [5]: no effects

COc1ccc(Cl)cc1S(=O)(=O)Nc1cccn2nc(C)nc12 [Analog C26-A6]
tumorsphere formation (sphere number and size) [1]: confirmed
blocking efficiency over time (stability of the compounds in cells) [2]: not significantly changed
split-luc activity in living cells [2]: inhibited split-luc activity in living cells in a dose dependent manner
tumorsphere formation (sphere number and size) [3]: inhibited spheres
tumorsphere formation (sphere number and size) [4]: confirmed
tumorsphere formation (sphere number and size) [5]: no effects
